Results as given in ChEMBL document CHEMBL3097992, “Comparative molecular field analysis of fenoterol derivatives interacting with an agonist-stabilized form of the β₂-adrenergic receptor” (Bioorg Med Chem, 2014).

What was measured:
[1] = molecular target: T1, Beta-2 adrenergic receptor (Homo sapiens, UniProt P07550); assay: Agonist activity at human beta2 adrenergic receptor expressed in HEK293 cells assessed as stimulation of cAMP accumulation; assay type: functional, cell-based
[2] = molecular target: T1, Beta-2 adrenergic receptor; assay: Displacement of [3H]-(R,R')-methoxyfenoterol from human beta2 adrenergic receptor expressed in HEK cells by liquid scintillation counting analysis; assay type: cell-based, HEK293
[3] = molecular target: T1, Beta-2 adrenergic receptor; assay: Displacement of [3H]-CGP-12177 from human beta2 adrenergic receptor expressed in HEK cells by liquid scintillation counting analysis; assay type: cell-based, HEK293

T1 sequence (P07550 whole entry): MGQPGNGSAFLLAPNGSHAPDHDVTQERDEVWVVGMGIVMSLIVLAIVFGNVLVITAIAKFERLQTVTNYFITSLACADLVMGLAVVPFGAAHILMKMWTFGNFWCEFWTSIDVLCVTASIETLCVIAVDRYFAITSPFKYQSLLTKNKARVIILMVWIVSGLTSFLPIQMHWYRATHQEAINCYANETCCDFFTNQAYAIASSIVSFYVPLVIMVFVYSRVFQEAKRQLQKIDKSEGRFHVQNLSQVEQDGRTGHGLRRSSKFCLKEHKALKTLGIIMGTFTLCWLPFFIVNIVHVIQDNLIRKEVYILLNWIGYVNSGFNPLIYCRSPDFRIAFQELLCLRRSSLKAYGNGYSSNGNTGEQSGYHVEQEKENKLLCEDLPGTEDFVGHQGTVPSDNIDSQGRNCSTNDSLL

SMILES | EC50 [1] [µM] | Ki [2] [µM] | Ki [3] [µM]
CC[C@H](Cc1ccc(OC)cc1)NC[C@H](O)c1cc(O)cc(O)c1 | 0.00163 | 0.0357 | 0.42
COc1ccc(C[C@@H](NC[C@H](O)c2cc(O)cc(O)c2)C(C)C)cc1 | 6.1 | 3.42 | > 100
CC[C@@H](Cc1ccc(O)cc1)NC[C@H](O)c1cc(O)cc(O)c1 | – | 0.294 | –
CC[C@@H](Cc1ccc(OC)cc1)NC[C@H](O)c1cc(O)cc(O)c1 | 1.01 | 4.3 | 20.1
COc1ccc(C[C@H](NC[C@H](O)c2cc(O)cc(O)c2)C(C)C)cc1 | 26.2 | 29.2 | > 100
CC[C@H](Cc1ccc(O)cc1)NC[C@H](O)c1cc(O)cc(O)c1 | – | 0.0391 | –
